These results are taken from article PMC5859971 (Genes & Development, 2018).

Structures are written as SMILES. pIC50: −log10 of the molar value.

The target in assay [1] is T1, wild-type mini-SF3b complex (4-protein SF3b complex) (Homo sapiens, UniProt O75533+Q7RTV0).
T1 construct: SF3B1 was limited to the HEAT repeat domain from residues 454–1304 and cloned in-frame with an N-terminal Flag tag; Truncated SF3B1 and full-length SF3B3, PHF5A, and SF3B5 were synthesized; made in house; host or cells: SF21 insect cells (baculovirus, pFastBac1)
T1 sequence (Q7RTV0 whole entry, the tested form may be a part): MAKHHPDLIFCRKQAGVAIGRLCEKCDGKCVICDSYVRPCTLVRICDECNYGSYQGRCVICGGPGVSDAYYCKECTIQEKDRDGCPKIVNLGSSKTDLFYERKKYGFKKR
T1 sequence (Q15393 whole entry, further chain, the tested form may be a part): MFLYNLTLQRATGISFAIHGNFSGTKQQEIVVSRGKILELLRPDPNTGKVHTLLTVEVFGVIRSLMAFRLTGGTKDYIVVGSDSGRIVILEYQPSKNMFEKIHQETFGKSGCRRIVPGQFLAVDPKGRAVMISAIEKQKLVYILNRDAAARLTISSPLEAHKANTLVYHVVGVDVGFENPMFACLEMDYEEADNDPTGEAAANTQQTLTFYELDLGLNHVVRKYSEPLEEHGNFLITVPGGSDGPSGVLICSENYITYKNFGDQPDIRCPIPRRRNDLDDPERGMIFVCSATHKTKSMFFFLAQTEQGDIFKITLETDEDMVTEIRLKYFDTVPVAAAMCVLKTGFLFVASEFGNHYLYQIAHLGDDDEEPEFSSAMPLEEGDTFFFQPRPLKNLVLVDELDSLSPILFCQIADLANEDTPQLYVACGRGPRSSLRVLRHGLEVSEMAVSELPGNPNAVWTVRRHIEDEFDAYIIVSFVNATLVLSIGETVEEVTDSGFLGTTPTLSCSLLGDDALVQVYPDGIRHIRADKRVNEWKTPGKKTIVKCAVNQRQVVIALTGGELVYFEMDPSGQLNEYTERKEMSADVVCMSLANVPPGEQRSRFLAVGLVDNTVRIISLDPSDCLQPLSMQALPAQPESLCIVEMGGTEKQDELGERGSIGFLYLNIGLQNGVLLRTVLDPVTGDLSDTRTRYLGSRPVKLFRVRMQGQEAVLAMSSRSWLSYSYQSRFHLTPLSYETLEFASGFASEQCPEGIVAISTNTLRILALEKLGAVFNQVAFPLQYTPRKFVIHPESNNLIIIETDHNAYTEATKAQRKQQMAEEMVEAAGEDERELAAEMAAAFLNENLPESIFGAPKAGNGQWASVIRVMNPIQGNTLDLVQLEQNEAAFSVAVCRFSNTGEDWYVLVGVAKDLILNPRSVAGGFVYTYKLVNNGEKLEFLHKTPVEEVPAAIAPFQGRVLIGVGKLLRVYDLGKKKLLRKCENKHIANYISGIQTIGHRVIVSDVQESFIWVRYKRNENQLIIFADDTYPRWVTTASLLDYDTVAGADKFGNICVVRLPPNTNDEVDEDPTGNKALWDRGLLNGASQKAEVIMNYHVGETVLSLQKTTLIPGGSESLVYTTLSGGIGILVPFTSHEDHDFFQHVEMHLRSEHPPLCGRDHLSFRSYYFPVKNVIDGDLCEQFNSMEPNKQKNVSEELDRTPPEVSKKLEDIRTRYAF
T1 sequence (O75533 454-1304): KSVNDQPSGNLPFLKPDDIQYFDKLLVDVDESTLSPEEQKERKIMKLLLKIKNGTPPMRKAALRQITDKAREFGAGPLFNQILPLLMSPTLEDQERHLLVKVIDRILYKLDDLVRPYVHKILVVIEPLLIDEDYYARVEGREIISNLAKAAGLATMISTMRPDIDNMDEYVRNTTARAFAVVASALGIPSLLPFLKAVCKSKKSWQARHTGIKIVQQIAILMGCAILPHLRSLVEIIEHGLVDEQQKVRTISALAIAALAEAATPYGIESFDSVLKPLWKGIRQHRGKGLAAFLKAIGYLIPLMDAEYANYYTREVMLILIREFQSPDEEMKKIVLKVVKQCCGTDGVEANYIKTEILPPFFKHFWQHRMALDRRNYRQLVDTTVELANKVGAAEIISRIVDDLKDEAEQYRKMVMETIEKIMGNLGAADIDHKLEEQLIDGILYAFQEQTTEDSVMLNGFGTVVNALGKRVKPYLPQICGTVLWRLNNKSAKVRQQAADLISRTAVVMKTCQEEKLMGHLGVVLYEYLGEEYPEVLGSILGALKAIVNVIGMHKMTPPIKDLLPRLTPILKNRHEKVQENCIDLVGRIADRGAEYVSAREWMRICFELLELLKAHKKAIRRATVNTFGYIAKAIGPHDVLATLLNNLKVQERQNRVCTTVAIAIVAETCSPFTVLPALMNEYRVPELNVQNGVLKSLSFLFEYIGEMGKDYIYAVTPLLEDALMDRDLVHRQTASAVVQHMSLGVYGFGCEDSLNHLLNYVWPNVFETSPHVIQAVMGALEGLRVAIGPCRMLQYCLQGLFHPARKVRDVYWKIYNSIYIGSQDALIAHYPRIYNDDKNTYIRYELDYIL
T1 sequence (Q9BWJ5 whole entry, further chain, the tested form may be a part): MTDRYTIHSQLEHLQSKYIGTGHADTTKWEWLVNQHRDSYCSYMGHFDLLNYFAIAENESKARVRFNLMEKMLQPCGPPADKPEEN
The experiment in a line: Scintillation proximity assay (SPA) competition with 3H-labeled pladienolide probe. As to conditions: competition with 10 nM 3H-labeled pladienolide probe, 25 nM protein; read-out: SPA IC50. Type of assay: binding. On the procedure:
(§1) To further validate the pose of the compound, we analyzed the activity of several related chemical probes using the SPA with the purified protein complex ([Teng et al. 2017]). The SPA is formatted as a competition assay in which the purified protein complex is captured on a bead containing scintillant, incubated with test compounds over a dose response, and then competed off with a fixed concentration of ^3H-Plad compound. IC50 curves are then measured from the resulting light emitted from the bead (Table 1; Supplemental Fig. S4). In addition, we tested the probes in viability assays in two engineered cell lines: HCT116-PHF5A^WT and the sensitization line HCT116-PHF5A^R38C (Table 1; Supplemental Fig. S5). This facilitates profiling of chemical probe activity in the PHF5A background (wild type and mutant). The relative expression levels were further confirmed by Western blot analysis (Supplemental Fig. S5).
Batch immobilization of the anti-Flag antibody (Sigma) to the anti-mouse PVT SPA scintillation beads (PerkinElmer) was prepared as follows. For every 1.5 mg of beads, 10 µg of antibody was prepared in 150 µL of PBS. The antibody–bead mixture was incubated for 30 min at room temperature and centrifuged at 18,000g for 5 min. One-hundred-fifty microliters of PBS was used to resuspend every 1.5 mg of antibody–bead mixture. The aforementioned mini-SF3b complex was tested for ^3H-labeled pladienolide probe binding ([Kotake et al. 2007]). One-hundred microliters of binding reactions was prepared with […] of bead slurry and 0 or 50 nM protein in buffer (20 mM HEPES at pH 8, 200 mM KCl, 5% glycerol). The mixture was incubated for 30 min, and varying concentrations of ^3H-labeled pladienolide probe were added. The mixture was incubated for 30 min, and luminescence signals were read using a MicroBeta2 plate counter (PerkinElmer). Compound competition studies were performed with the wild-type mini-SF3b complex. One-hundred microliters of binding reactions was prepared with 50 µL of bead slurry, 25 nM protein in buffer, and compounds at varying concentrations. After 30 min of preincubation, 10 nM ^3H-labeled pladienolide probe was added. The reactions were incubated for 30 min, and luminescence signals were read.
The Scintillation proximity assay (SPA) competition assay with 10 nM 3H tracer for different Pladienolide analogs binding to the 4-protein SF3b complex. Error bars represent STD for 2 or more measurements. Red = E7107, Orange = PladD, Purple = PladF, Green = compound 2, red = compound 3, gray = compound 4, black = compound 5, blue = compound 6. […]
On the technique in general: In a scintillation proximity assay essentially only radioactivity close to the scintillant gives light.

For assay [2], the system named is HCT116-PHF5A^WT. The experiment in a line: CellTiter-Glo viability assay, HCT116-PHF5A^WT. As to conditions: Homo sapiens; 72 h, CellTiter-Glo; read-out: HCT116-PHF5A^WT GI50. The format is cell-based, human. On the procedure: as §1
(§2) Parental HCT116 cells were obtained from American Type Culture Collection and cultured in RPMI 1640 medium supplemented with 10% fetal bovine serum. PHF5A R38C was generated using the Agilent QuikChange II kit and was cloned into pLenti6.3/V5 as described ([Teng et al. 2017]). The verified clone was used for lentivirus production using X293T cells. Parental HCT116 cells were infected with virus and selected with blasticidin S at 10 µg mL^−1 for 1 wk. Engineered cell lines were subsequently maintained in the absence of antibiotic. Transgene expression was confirmed by Western blot analysis (Supplemental Fig. S4). For Western blot analysis, α-PHF5A rabbit polyclonal antibody (Protein Tech, 15554-1-AP) was used at 1:1000 dilution in LI-COR buffer, and anti-rabbit secondary antibody (LI-COR) was used at 1:5000 dilution. The Western blot was imaged using an Odyssey V3.0 imager (LI-COR). For CellTiter-Glo analysis of the wild-type and PHF5A^R38C cell lines, 500 cells were seeded in each well of a 384-well plate 1 d before compound addition. Dose response was measured in 11-point serial dilutions with a top dose of 10 µM. The percentage of DMSO was controlled throughout, and a DMSO-only control was included. Seventy-two hours after dosing, CellTiter-Glo reagent was added, incubated, and assayed on an EnVision multilabel reader (PerkinElmer). Luminescence values from each treatment were normalized to the average value of the respective DMSO control. The dose response curve plots were generated in GraphPad Prism, and GI50 values were calculated from nonlinear regression analysis. GI50 values for the wild-type and R38C mutant cell lines were plotted in Spotfire.

Assay [3] has as its system SF3B1^R1074H and PHF5A^Y36 mutations. As to conditions: strongest levels of resistance; ref Yokoi et al. 2011; Teng et al. 2017; cited from earlier work.
The test system of assay [4] is HCT116-PHF5A^R38C. The experiment in a line: CellTiter-Glo viability assay, HCT116-PHF5A^R38C. The format is cell-based, human. On the procedure:
as §1, §2
(In general: ATP-based viability assays read luminescence as a measure of living cells.)

Turning to `CCC(O)C(C)C1OC1CC(C)(O)C=CC=C(C)C1OC(=O)CC(O)CCC(C)(O)C(OC(=O)N2CCN(C3CCCCCC3)CC2)C=CC1C` (stereo not drawn) [Compound E7107], in assay [1], the pIC50 was 7.17. Moreover, the 50% growth inhibitory concentration (GI50) in assay [2] was 2.3 nM; in assay [4] (Homo sapiens, 72 h, CellTiter-Glo, read-out: HCT116-PHF5A^R38C GI50), 1.2 nM. Also, the “resistance conferred by SF3B1^R1074H and PHF5A^Y36C” value in assay [3] is > 500 fold. Further, the “sensitization (enhanced potency in PHF5A^R38C vs wild type)” value in assay [4] (GI50 R38C vs wild type, n = 2) was “twofold”. Also, the “PHF5A^R38C sensitization phenotype (words)” value in assay [4] (R38C vs wild type) is “sensitization”.

The term pIC50 denotes the IC50 on a negative log10 scale, so that one unit is a factor of ten. One may read the GI50 as the concentration that inhibits growth by half.
